This passage reports AC50 results from patent US11040036B2, “Pyruvate kinase activators for use in treating blood disorders” (Agios Pharmaceuticals, Inc., priority 2017, dated 2021).

Experiment [1] deals with T1, wild type PKR (Homo sapiens, UniProt P30613). Kind of experiment: PKR mutant assay (AC50), wild type PKR. It is filed as biochemical. To be noted: wild type PKR enzyme; read-out: PKR WT AC50. The procedure: (§1) Example 11. PKR Mutant Assay
(§2) PKR or PKR mutant enzyme solution was diluted into a reaction mix, which contains 1× buffer (100 mM KCl, 50 mM Tris pH 7.5, 5 mM MgCl2) as well as PEP (cont depends on enzyme), 180 μM NADH, 0.5 units LDH, 1 mM DTT, 0.03% BSA; final assay concentrations after 1.11 fold dilution are indicated.
(§3) 2 μL of test compound was added into wells first, and then 180 μL reaction mix was added.
(§4) Reactions mixture with test compound was assembled except for ADP, and plates were stored for 60 minutes at room temperature.
(§5) 20 uL ADP was added to start reaction at room temperature and reaction progress was measured as changes in absorbance at 340 nm wavelength at room temperature.
(§6) Test Compound Preparation:
(§7) Test compound stock was made at 100× concentration in 100% DMSO (10 mM)
(§8) 1 to 3 dilutions were made for 11 points (i.e. 50 μl of first concentration added to 100 μl 100% DMSO to yield 3.33 mM, 50 μl of this added to 100 μl DMSO to yield 1.11 mM, and so forth) • 1 to 100 dilution into assay (2 μl in 200 μl) yielded starting concentration of 100 μM, decreasing 3 fold for 11 points.
(§9) Assay Buffer: 100 mM KCl, 50 mM Tris 7.5, 5 mM MgCl2, 1 ruM DTT, 0.03% BSA
(§10) Reaction Mixture: PKR mutant enzyme: 40-400 ng/well; ADP: 0.2-1.65 mM; PEP: 0.1-0.5 mM; NADH:180 μM; LDH: 0.5 units (Sigma #59023); DTT: 1 mM; BSA: 0.03%.

Experiment [2] concerns the target PKR K410E (Homo sapiens, UniProt P30613, K410E). The experiment is described as follows: PKR mutant assay (AC50), PKR K410E. In kind it is biochemical. As to conditions: PKR K410E mutant enzyme. As to the method: as §1, §2, §3, §4, §5, §6, §7, §8, §9, §10
Experiment [3] has as its target PKR R510Q (Homo sapiens, UniProt P30613, R510Q). Kind of experiment: PKR mutant assay (AC50), PKR R510Q. To be noted: PKR R510Q mutant enzyme; read-out: PK R510Q AC50. It is filed as biochemical. The procedure: as §1, §2, §3, §4, §5, §6, §7, §8, §9, §10
Experiment [4] has as its target T1, wild type PKR. The experiment is described as follows: Cell based ATP assay in purified red blood cells. On the set-up: endogenous in cells; host or cells: purified red blood cells from blood of healthy volunteers. As to conditions: RBCs, overnight at 37° C., ATP levels by Cell-Titer-Glo. The procedure: Example 16. Red Blood Cell (RBC) Purification
Fresh blood drawn from healthy volunteers into K2EDTA tubes was collected. Whole blood was pelleted by spinning at 500 g for 10 minutes. Cut transfusion bag port off of Purecell leukocyte reduction neofilter (Fisher NCO267633) one (1) inch above filter. Attach a 10 ml syringe barrel to the remaining cut tubing attached to neofilter. The plasma layer was removed from the pellet of the whole blood and the pellet was resuspended in 2× volume of phosphate buffered saline (PBS). Transfer 9 ml re-suspended blood cell pellet to prepared 10 ml syringe that is attached to the neofilter. Allow whole blood to gravity flow through filter until all fluid runs through upper tubing into filter disc. Add plunger to the syringe, remove syringe from clamp and invert the filter, then plunge air through the syringe filter system. Using a new 5 ml syringe, remove filtered RBCs from the bag by the syringe port and transfer purified RBCs to a 5 ml snap cap tube that has been incubated on ice. Spin 5 ml snap cap tube at 500 g for 10 minutes at 15 C, aspirate supernatant and resuspend in AGAM (1×PBS, 1% glucose, 170 mg/L adenine, 5.25 g/L mannitol) at a density of 4×10^9 cells/mL.
Example 17. Cell Based ATP Assay
For cell based ATP assays, the compound as described herein was prepared in 100% DMSO as a 10 mM stock. Serial dilutions (1:4) were performed in 96-well V-bottom storage plate and then added 1:100 to 96-well V-bottom plates containing AGAM. RBCs were diluted in AGAM media to a density of 1×10^7 cells/mL before added 90 μL/well to black clear bottom assay plates (final compound concentration at 0.1% DMSO concentration). Assay plates were sealed using aluminum foil seals and incubated overnight at 37° C. in a humidified chamber. ATP levels were read out using Cell-Titer-Glo (Promega).

PKR K410E, sequence (P30613 whole entry K410E): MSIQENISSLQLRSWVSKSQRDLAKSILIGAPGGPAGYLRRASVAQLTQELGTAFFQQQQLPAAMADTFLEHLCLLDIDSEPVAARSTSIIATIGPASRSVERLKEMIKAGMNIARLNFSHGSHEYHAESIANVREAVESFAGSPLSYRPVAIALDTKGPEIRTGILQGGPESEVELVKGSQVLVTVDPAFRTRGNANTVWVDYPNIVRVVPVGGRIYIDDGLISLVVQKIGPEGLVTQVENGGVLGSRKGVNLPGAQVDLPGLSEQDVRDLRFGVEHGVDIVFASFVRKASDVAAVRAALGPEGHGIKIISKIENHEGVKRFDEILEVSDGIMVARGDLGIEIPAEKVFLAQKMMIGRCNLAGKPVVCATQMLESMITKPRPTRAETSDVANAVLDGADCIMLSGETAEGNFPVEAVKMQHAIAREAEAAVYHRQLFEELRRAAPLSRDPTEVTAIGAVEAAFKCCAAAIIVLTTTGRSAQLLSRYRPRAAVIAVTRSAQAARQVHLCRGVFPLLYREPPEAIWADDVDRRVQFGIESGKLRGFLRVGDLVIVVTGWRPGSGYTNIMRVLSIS
PKR R510Q, sequence (P30613 whole entry R510Q): as the sequence (P30613 whole entry K410E) above, with E410K, R510Q counted along it
T1 sequence (P30613 whole entry): as the sequence (P30613 whole entry K410E) above, with E410K counted along it

What is called AC50 is the concentration at which the activity in the assay is half-maximal. On to `Cn1c2nc(Cc3cc[nH]n3)sc2c2cnn(Cc3csc(N)n3)c(=O)c21`, for which the concentration at half-maximal activity (AC50) in experiment [1] is under 300 nM; in experiment [2] it was under 300 nM; in experiment [3], under 300 nM; in experiment [4] it was at most 1000 nM.
Regarding `Cn1c2nc(Cc3cc[nH]n3)sc2c2cnn(Cc3nccs3)c(=O)c21`, the concentration at half-maximal activity (AC50) in experiment [1] was under 300 nM; in experiment [2] it was under 300 nM; in experiment [3] it was under 300 nM; in experiment [4] it was at most 1000 nM.
As to `Cn1c2nc(Cc3cc[nH]n3)sc2c2cnn(Cc3ncsc3Br)c(=O)c21`, the AC50 in experiment [1] is under 300 nM; in experiment [2], under 300 nM; in experiment [3] it was under 300 nM; in experiment [4] it was at most 1000 nM.
On to `Cn1cc(Cn2ncc3c4sc(Cc5cc[nH]n5)nc4n(C)c3c2=O)nn1`, for which the concentration at half-maximal activity (AC50) was under 300 nM in experiment [1], under 300 nM in experiment [2], under 300 nM in experiment [3] and at most 1000 nM in experiment [4].
`Cn1c2nc(Cc3cc[nH]n3)sc2c2cnn(Cc3ccc(F)c(N)n3)c(=O)c21`: the concentration at half-maximal activity (AC50) is under 300 nM in experiment [1], under 300 nM in experiment [2], under 300 nM in experiment [3] and at most 1000 nM in experiment [4].
Turning to `Cn1ccc(Cn2ncc3c4sc(Cc5n[nH]cc5F)nc4n(C)c3c2=O)n1`, the AC50 in experiment [1] was under 300 nM; in experiment [2], under 300 nM; in experiment [3], under 300 nM; in experiment [4] it was at most 1000 nM.
In the case of `Cn1c2nc(Cc3nc(N)sc3F)sc2c2cnn(Cc3c[nH]nn3)c(=O)c21`, the AC50 in experiment [1] was under 300 nM; in experiment [2] it was under 300 nM; in experiment [3], under 300 nM; in experiment [4] it was at most 1000 nM.
`Cn1c2nc(Cc3ncsc3F)sc2c2cnn(Cc3c[nH]nn3)c(=O)c21`: the AC50 was under 300 nM in experiment [1], under 300 nM in experiment [2], under 300 nM in experiment [3] and at most 1000 nM in experiment [4].
Turning to `CCOC(c1cscn1)c1nc2c(s1)c1cnn(Cc3c[nH]nn3)c(=O)c1n2C` (stereo not shown), the AC50 in experiment [1] is over 800 nM; in experiment [2] it was over 800 nM; in experiment [3] it was over 800 nM; in experiment [4] it was over 1000 nM.
Take `Cn1c2nc(Cc3cc[nH]n3)sc2c2cnn(Cc3cccnc3)c(=O)c21`: the AC50 in experiment [1] is under 300 nM; in experiment [2] it was under 300 nM; in experiment [3], under 300 nM; in experiment [4] it was at most 1000 nM.
In the case of `Cn1c2nc(Cc3cc[nH]n3)sc2c2cnn(Cc3ccccn3)c(=O)c21`, the AC50 is under 300 nM in experiment [1], under 300 nM in experiment [2], under 300 nM in experiment [3] and at most 1000 nM in experiment [4].
As to `Cn1c2nc(Cc3cc[nH]n3)sc2c2cnn(Cc3ccncc3)c(=O)c21`, the AC50 is under 300 nM in experiment [1], under 300 nM in experiment [2], under 300 nM in experiment [3] and at most 1000 nM in experiment [4].
Regarding `Cn1c2nc(Cc3cc[nH]n3)sc2c2cnn(Cc3ccc(=O)[nH]c3)c(=O)c21`, the concentration at half-maximal activity (AC50) in experiment [1] was under 300 nM; in experiment [2], under 300 nM; in experiment [3], under 300 nM; in experiment [4] it was at most 1000 nM.
Regarding `Cn1c2nc(Cc3cc[nH]n3)sc2c2cnn(Cc3cc[nH]c(=O)c3)c(=O)c21`, the half-maximal activity concentration (AC50) in experiment [1] is under 300 nM; in experiment [2] it was under 300 nM; in experiment [3], 301 to 800 nM; in experiment [4] it was at most 1000 nM.
Consider `Cn1ccc(Cc2nc3c(s2)c2cnn(Cc4c[nH]nn4)c(=O)c2n3C)n1`, for which the AC50 in experiment [1] is under 300 nM; in experiment [2] it was under 300 nM; in experiment [3], under 300 nM; in experiment [4], at most 1000 nM.
Turning to `Cn1ccc(Cc2nc3c(s2)c2cnn(Cc4ccn(C)n4)c(=O)c2n3C)n1`, the AC50 was under 300 nM in experiment [1], under 300 nM in experiment [2], under 300 nM in experiment [3] and at most 1000 nM in experiment [4].
